From patent US11566007B2, “Ras inhibitors” (Revolution Medicines, Inc., priority 2019, dated 2023)
Where two headings read alike, the source gives them in different places.

Legend:
[1] = system: NCI-H358 cells (K-Ras G12C); experiment: Potency assay: pERK in NCI-H358 cells; assay type: cell-based, human; conditions: Homo sapiens
Method in brief: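 pERK decrease read by AlphaLISA SureFire p-ERK1/2 or In-Cell Western after 4 h compound exposure at 37 °C, 5% CO2.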

K-Ras G12C = K-Ras G12C (Homo sapiens (Human), UniProt P01116+P62937, G12C); experiment: Ras-Raf (BRAF RBD) disruption / FRET / MOA assay, KRAS G12C; assay type: biochemical; conditions: KRAS G12C; Ras-Raf disruption/FRET/MOA assay; read-out: IC50* KRAS G12C FRET data
Chain of K-Ras G12C (P01116-2 other isoform, or with tags, fused parts or gaps G12C): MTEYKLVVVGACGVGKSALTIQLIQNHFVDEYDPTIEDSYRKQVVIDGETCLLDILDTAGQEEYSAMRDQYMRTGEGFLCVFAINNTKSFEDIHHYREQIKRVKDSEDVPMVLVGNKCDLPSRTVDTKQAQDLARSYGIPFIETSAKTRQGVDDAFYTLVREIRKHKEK
Chain of K-Ras G12C (P62937 whole entry): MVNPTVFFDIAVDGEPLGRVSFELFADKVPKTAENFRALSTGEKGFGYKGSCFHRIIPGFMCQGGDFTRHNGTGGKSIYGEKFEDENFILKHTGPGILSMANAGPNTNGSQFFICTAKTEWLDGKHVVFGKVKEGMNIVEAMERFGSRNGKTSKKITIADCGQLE
Method in brief: (§1)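 A 10-point, 3-fold dilution series topping at 30 μM final was incubated 3 h at 25° C with the Ras/cyclophilin A/BRAF RBD mixture.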

K-Ras G13C = K-Ras G13C (Homo sapiens (Human), UniProt P01116+P62937, G13C); experiment: Ras-Raf (BRAF RBD) disruption / FRET / MOA assay, KRAS G13C; assay type: biochemical; conditions: KRAS G13C; Ras-Raf disruption/FRET/MOA assay; read-out: IC50* KRAS G13C FRET data
Chain of K-Ras G13C (P01116-2 other isoform, or with tags, fused parts or gaps G13C): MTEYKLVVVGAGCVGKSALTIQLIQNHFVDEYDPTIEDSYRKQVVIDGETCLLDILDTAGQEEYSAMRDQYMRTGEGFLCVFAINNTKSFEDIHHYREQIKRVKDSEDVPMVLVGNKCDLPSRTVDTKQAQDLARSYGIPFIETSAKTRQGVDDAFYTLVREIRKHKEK
Chain of K-Ras G13C (P62937 whole entry): as the sequence (P62937 whole entry) above
Method in brief: as §1

KRAS G12S = KRAS G12S (Homo sapiens (Human), UniProt P01116+P62937, G12S); experiment: Ras-Raf (BRAF RBD) disruption / FRET / MOA assay, KRAS G12S; assay type: biochemical; conditions: Ras-Raf disruption/FRET/MOA assay; class symbols; read-out: KRAS G12S FRET data IC50
Chain of KRAS G12S (P01116-2 other isoform, or with tags, fused parts or gaps G12S): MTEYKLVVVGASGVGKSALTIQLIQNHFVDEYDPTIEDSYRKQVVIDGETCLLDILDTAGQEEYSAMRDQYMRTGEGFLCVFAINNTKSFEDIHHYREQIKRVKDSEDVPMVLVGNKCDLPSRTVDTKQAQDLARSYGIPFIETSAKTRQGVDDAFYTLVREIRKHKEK
Chain of KRAS G12S (P62937 whole entry): as the sequence (P62937 whole entry) above
Method in brief: as §1

KRAS G12D = KRAS G12D (Homo sapiens (Human), UniProt P01116+P62937, G12D); experiment: Ras-Raf (BRAF RBD) disruption / FRET / MOA assay, KRAS G12D; assay type: biochemical; conditions: Ras-Raf disruption/FRET/MOA assay; class symbols; read-out: KRAS G12D FRET data IC50
Chain of KRAS G12D (P01116-2 other isoform, or with tags, fused parts or gaps G12D): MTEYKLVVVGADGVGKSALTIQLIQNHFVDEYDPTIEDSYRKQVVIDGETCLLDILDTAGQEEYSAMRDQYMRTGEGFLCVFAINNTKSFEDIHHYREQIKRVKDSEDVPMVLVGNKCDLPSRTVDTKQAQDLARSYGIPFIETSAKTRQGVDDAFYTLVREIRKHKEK
Chain of KRAS G12D (P62937 whole entry): as the sequence (P62937 whole entry) above
Method in brief: as §1

KRAS G12V = KRAS G12V (Homo sapiens (Human), UniProt P01116+P62937, G12V); experiment: Ras-Raf (BRAF RBD) disruption / FRET / MOA assay, KRAS G12V; assay type: biochemical; conditions: read-out: IC50* KRAS G12V FRET data
Chain of KRAS G12V (P01116-2 other isoform, or with tags, fused parts or gaps G12V): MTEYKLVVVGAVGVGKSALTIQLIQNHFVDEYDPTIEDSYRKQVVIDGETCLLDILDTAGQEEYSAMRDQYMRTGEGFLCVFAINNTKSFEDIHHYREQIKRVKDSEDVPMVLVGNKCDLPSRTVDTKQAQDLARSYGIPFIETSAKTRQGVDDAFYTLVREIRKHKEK
Chain of KRAS G12V (P62937 whole entry): as the sequence (P62937 whole entry) above
Method in brief: as §1

KRAS WT = KRAS WT (Homo sapiens (Human), UniProt P01116+P62937); experiment: Ras-Raf (BRAF RBD) disruption / FRET / MOA assay, KRAS WT; assay type: biochemical; conditions: read-out: IC50* KRAS WT FRET data
Chain of KRAS WT (P01116-2 other isoform, or with tags, fused parts or gaps): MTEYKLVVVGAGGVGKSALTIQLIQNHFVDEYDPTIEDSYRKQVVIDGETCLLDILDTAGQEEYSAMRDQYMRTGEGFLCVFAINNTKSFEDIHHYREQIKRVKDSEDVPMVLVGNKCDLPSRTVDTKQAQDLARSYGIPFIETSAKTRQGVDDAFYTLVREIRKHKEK
Chain of KRAS WT (P62937 whole entry): as the sequence (P62937 whole entry) above
Method in brief: as §1

KRAS G13D = KRAS G13D (Homo sapiens (Human), UniProt P01116+P62937, G13D); experiment: Ras-Raf (BRAF RBD) disruption / FRET / MOA assay, KRAS G13D; assay type: biochemical; conditions: read-out: IC50* KRAS G13D FRET data
Chain of KRAS G13D (P01116-2 other isoform, or with tags, fused parts or gaps G13D): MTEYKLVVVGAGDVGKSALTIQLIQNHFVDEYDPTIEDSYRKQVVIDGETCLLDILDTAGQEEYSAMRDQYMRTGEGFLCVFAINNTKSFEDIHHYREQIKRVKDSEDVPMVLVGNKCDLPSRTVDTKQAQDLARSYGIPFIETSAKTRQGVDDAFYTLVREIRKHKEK
Chain of KRAS G13D (P62937 whole entry): as the sequence (P62937 whole entry) above
Method in brief: as §1

KRAS Q61H = KRAS Q61H (Homo sapiens (Human), UniProt P01116+P62937, Q61H); experiment: Ras-Raf (BRAF RBD) disruption / FRET / MOA assay, KRAS Q61H; assay type: biochemical; conditions: Ras-Raf disruption/FRET/MOA assay; class symbols; read-out: KRAS Q61H FRET data IC50
Chain of KRAS Q61H (P01116-2 other isoform, or with tags, fused parts or gaps Q61H): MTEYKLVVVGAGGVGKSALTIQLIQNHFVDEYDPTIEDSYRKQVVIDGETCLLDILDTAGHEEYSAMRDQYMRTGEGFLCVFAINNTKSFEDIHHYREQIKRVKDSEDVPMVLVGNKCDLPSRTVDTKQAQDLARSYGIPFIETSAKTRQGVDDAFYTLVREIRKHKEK
Chain of KRAS Q61H (P62937 whole entry): as the sequence (P62937 whole entry) above
Method in brief: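 Compounds (30 μM top final, 10-point 3-fold dilutions) incubated 3 h at 25° C with nucleotide-loaded Ras, cyclophilin A and BRAF RBD. Detection with 10 nM anti-His Eu-W1024 and 50 nM anti-GST allophycocyanin over another 1.5 h. Lowered TR-FRET ratio relative to DMSO wells gives IC50.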

NRAS G12C = NRAS G12C (Homo sapiens (Human), UniProt P01111+P62937, G12C); experiment: Ras-Raf (BRAF RBD) disruption / FRET / MOA assay, NRAS G12C; assay type: biochemical; conditions: read-out: IC50* NRAS G12C FRET data
Chain of NRAS G12C (P01111 whole entry G12C): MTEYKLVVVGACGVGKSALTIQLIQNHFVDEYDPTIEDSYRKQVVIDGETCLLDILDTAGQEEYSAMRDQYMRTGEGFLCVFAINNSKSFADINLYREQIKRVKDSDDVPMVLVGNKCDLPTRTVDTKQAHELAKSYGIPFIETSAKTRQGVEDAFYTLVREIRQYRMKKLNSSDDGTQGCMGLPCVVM
Chain of NRAS G12C (P62937 whole entry): as the sequence (P62937 whole entry) above
Method in brief: as §1

NRAS Q61R = NRAS Q61R (Homo sapiens (Human), UniProt P01111+P62937, Q61R); experiment: Ras-Raf (BRAF RBD) disruption / FRET / MOA assay, NRAS Q61R; assay type: biochemical; conditions: NRAS Q61R; Ras-Raf disruption/FRET/MOA assay; read-out: IC50* NRAS Q61R FRET data
Chain of NRAS Q61R (P01111 whole entry Q61R, canonical isoform): as the sequence (P01111 whole entry G12C) above, with C12G, Q61R counted along it
Chain of NRAS Q61R (P62937 whole entry, canonical isoform): as the sequence (P62937 whole entry) above
Procedure: (§2) The purpose of this biochemical assay is to measure the ability of test compounds to facilitate ternary complex formation between a nucleotide-loaded Ras isoform and cyclophilin A; the resulting ternary complex disrupts binding to a BRAF^RBD construct, inhibiting Ras signaling through a RAF effector.
(§3) […]. Compound is present in plate wells as a 10-point 3-fold dilution series starting at a final concentration of 30 μM. After incubation at 25° C. for 3 hours, a mixture of Anti-His Eu-W1024 and anti-GST allophycocyanin is then added to assay sample wells at final concentrations of 10 nM and 50 nM, respectively, and the reaction incubated for an additional 1.5 hours. […] Compounds that facilitate disruption of a Ras:RAF complex are identified as those eliciting a decrease in the TR-FRET ratio relative to DMSO control wells.
(§4) Note—The following protocol describes a procedure for monitoring disruption of K-Ras G12C (GMP-PNP) binding to BRAF^RBD by a compound of the invention. This protocol may also be executed substituting other Ras proteins or nucleotides.
(§5) The purpose of this biochemical assay was to measure the ability of test compounds to facilitate ternary complex formation between a nucleotide-loaded K-Ras isoform and Cyclophilin A; the resulting ternary complex disrupts binding to a BRAF^RBD construct, inhibiting K-Ras signaling through a RAF effector. Data is reported as IC50 values.
(§6) […]. Compound was present in plate wells as a 10-point 3-fold dilution series starting at a final concentration of 30 μM. After incubation at 25° C. for 3 hours, a mixture of Anti-His Eu-W1024 and anti-GST allophycocyanin was then added to assay sample wells at final concentrations of 10 nM and 50 nM, respectively, and the reaction incubated for an additional 1.5 hours. […] Compounds that facilitate disruption of a K-Ras:RAF complex were identified as those eliciting a decrease in the TR-FRET ratio relative to DMSO control wells.

NRAS Q61K = NRAS Q61K (Homo sapiens (Human), UniProt P01111+P62937, Q61K); experiment: Ras-Raf (BRAF RBD) disruption / FRET / MOA assay, NRAS Q61K; assay type: biochemical; conditions: NRAS Q61K; Ras-Raf disruption/FRET/MOA assay; read-out: IC50* NRAS Q61K FRET data
Chain of NRAS Q61K (P01111 whole entry Q61K): as the sequence (P01111 whole entry G12C) above, with C12G, Q61K counted along it
Chain of NRAS Q61K (P62937 whole entry): as the sequence (P62937 whole entry) above
Procedure: as §2, §3, §4, §5, §6

NRAS WT = NRAS WT (Homo sapiens (Human), UniProt P01111+P62937); experiment: Ras-Raf (BRAF RBD) disruption / FRET / MOA assay, NRAS WT; assay type: biochemical; conditions: read-out: IC50* NRAS WT FRET data
Chain of NRAS WT (P01111 whole entry): as the sequence (P01111 whole entry G12C) above, with C12G counted along it
Chain of NRAS WT (P62937 whole entry): as the sequence (P62937 whole entry) above
Procedure: as §2, §3, §4, §5, §6

[2] = NCI-H358, H358 KRAS G12C, read-out: pERK EC50

SMILES | EC50 [1, 2] [nM] | IC50 (K-Ras G12C) [nM] | IC50 (K-Ras G13C) [nM] | IC50 (KRAS G12S) [nM] | IC50 (KRAS G12D) [nM] | IC50 (KRAS G12V) [nM] | IC50 (KRAS WT) [nM] | IC50 (KRAS G13D) [nM] | IC50 (KRAS Q61H) [nM] | IC50 (NRAS G12C) [nM] | IC50 (NRAS Q61R) [nM] | IC50 (NRAS Q61K) [nM] | IC50 (NRAS WT) [nM] | EC50 ([1]; NCI-H358, read-out: pERK EC50) [nM]
CO[C@@H](C)c1ncccc1-c1c2c3cc(ccc3n1CC(F)(F)F)-c1csc(n1)C[C@H](NC(=O)[C@H](C(C)C)N(C)C(=O)N1C[C@@H]3OCCN(C(=O)/C=C/CN(C)C)[C@@H]3C1)C(=O)N1CCC[C@H](N1)C(=O)OCC(C)(C)C2 (atropisomer, axis not shown) [Example A573] | < 5000 | 10 to 100 | 10 to 100 | 100 to 1000 | 1000 to 10000 | 1000 to 10000 | 100 to 1000 | 100 to 1000 | 100 to 1000 | 10 to 100 | 100 to 1000 | 100 to 1000 | 100 to 1000 | –
CO[C@@H](C)c1ncccc1-c1c2c3cc(ccc3n1CC(F)(F)F)-c1nc(nn1C)C[C@H](NC(=O)[C@H](C(C)C)N(C)C(=O)C1(F)CCN(C(=O)C#CC(C)(C)N(C)C)CC1)C(=O)N1CCC[C@H](N1)C(=O)OCC(C)(C)C2 (atropisomer, axis not shown) [Example A577] | < 5000 | < 10 | 10 to 100 | 10 to 100 | 100 to 1000 | 100 to 1000 | 100 to 1000 | 100 to 1000 | 10 to 100 | < 10 | 10 to 100 | 10 to 100 | 10 to 100 | –
C=CC(=O)N1CCO[C@@H]2CCN(C(=O)N(C)[C@H](C(=O)N[C@H]3Cc4nc(cs4)-c4ccc5c(c4)c(c(-c4cccnc4[C@H](C)OC)n5CC)CC(C)(C)COC(=O)[C@@H]4CCCN(N4)C3=O)C(C)C)C[C@@H]21 (atropisomer, axis not shown) [Example A581] | < 5000 | 10 to 100 | 100 to 1000 | 100 to 1000 | 1000 to 10000 | 100 to 1000 | 100 to 1000 | 100 to 1000 | 100 to 1000 | 10 to 100 | 100 to 1000 | 100 to 1000 | 100 to 1000 | –
CCn1c(-c2cccnc2[C@H](C)OC)c2c3cc(ccc31)-c1cccc(c1)C[C@H](NC(=O)[C@H](C(C)C)N1CC[C@]3(CCN(C(=O)C#C[C@H]4COCCN4C)C3)C1=O)C(=O)N1CCC[C@H](N1)C(=O)OCC(C)(C)C2 (atropisomer, axis not shown) [Example A592] | – | 10 to 100 | 1000 to 10000 | 1000 to 10000 | > 10000 | 1000 to 10000 | > 10000 | > 10000 | 1000 to 10000 | 10 to 100 | > 10000 | > 10000 | > 10000 | < 5000
C=CC(=O)N1CCO[C@H]2CCN(C(=O)N(C)[C@H](C(=O)N[C@H]3Cc4nc(cs4)-c4ccc5c(c4)c(c(-c4cccnc4[C@H](C)OC)n5CC)CC(C)(C)COC(=O)[C@@H]4CCCN(N4)C3=O)C(C)C)C[C@@H]21 (atropisomer, axis not shown) [Example A609] | < 5000 | < 10 | 10 to 100 | 10 to 100 | 100 to 1000 | 10 to 100 | 10 to 100 | 100 to 1000 | 10 to 100 | < 10 | 10 to 100 | 10 to 100 | 10 to 100 | –
CCn1c(-c2cccnc2[C@H](C)OC)c2c3cc(ccc31)N1CCO[C@@H](C[C@H](NC(=O)[C@H](C(C)C)N3CC[C@@]4(CCN(C(=O)C#CC(C)(C)N(C)C)C4)C3=O)C(=O)N3CCC[C@H](N3)C(=O)OCC(C)(C)C2)C1 (atropisomer, axis not shown) [Example A614] | < 5000 | 10 to 100 | 1000 to 10000 | > 10000 | > 10000 | > 10000 | > 10000 | > 10000 | > 10000 | 10 to 100 | > 10000 | > 10000 | > 10000 | –
CCn1c(-c2cccnc2[C@H](C)OC)c2c3cc(ccc31)-c1cccc(c1)C[C@H](NC(=O)[C@H](C(C)C)N(C)C(=O)C1(F)CCN(C(=O)C#CC(C)(C)N(C)C)CC1)C(=O)N1CCC[C@H](N1)C(=O)OCC(C)(C)C2 (atropisomer, axis not shown) [Example A699] | < 5000 | < 10 | 10 to 100 | 100 to 1000 | 1000 to 10000 | 100 to 1000 | 100 to 1000 | 100 to 1000 | 100 to 1000 | < 10 | 100 to 1000 | 100 to 1000 | 100 to 1000 | –
